{"source": "patent US11213522B2", "about": "“Autoimmune-induced glutamatergic receptor dysfunction methods and treatments” (SARAH HERZOG MEMORIAL HOSPITAL EZRAT NASHIM ASSOCIATION, priority 2013, dated 2022)", "key": {"[1]": {"tested_on": "patient positive for anti-NR1 NMDAR antibodies", "experiment": "Side effects and tolerability (UKU Side Effect Rating Scale, medical work-up), D-serine clinical trial", "format": "in vivo, human", "settings": "throughout the study; 1500 to 4000 mg/day over 6 weeks, adjuvant", "protocol": "(§1) The trial consisted of two periods, starting with a 2 week lead-in/stabilization period (−2-0) following which the patient was entered in the second period of the study which consisted of a 6 week (0-6), open-label, fixed dose therapy phase. During this phase, the patient received adjuvant treatment with DSR, whose dose was increased from 1500 mg/day (week 1) to 2000 mg/day (weeks 2 and 3) to 3000 mg/day (weeks 4 and 5) and to 4000 mg/day (week 6). The doses of the ongoing medication received by the patient remained fixed throughout the study and no changes in medication were performed.\nThe patient underwent prior to entering the study and at study weeks 3 and 6 a medical work-up including complete medical history, and routine clinical blood work, including blood count+differential, lipids, and glucose levels, kidney, thyroid, and liver function parameters, urinalysis, and blood pressure measurements. Abdominal ultrasound was performed prior to study entry and electroencephalogram (EEG) and brain magnetic resonance imaging (MR1) were obtained pre- and post-DSR administration.\nThe assessment procedures used in the study included clinical and neurocognitive examinations. Motor and psychiatric symptoms as well as side-effects were rated biweekly throughout the study. […] In conjunction with UKU ratings, patient's vital signs and body weight were monitored throughout the study."}, "[2]": {"tested_on": "patient positive for anti-NR1 NMDAR antibodies", "experiment": "Trail-Making-Test (TMT) part A and part B", "format": "in vivo, human", "settings": "post-6 weeks D-serine", "protocol": "as §1\n(§2) In addition, cognitive performance was assessed pre- and post DSR treatment. For this purpose, a 1.5-hour neurocognitive assessment battery (nine computerized and two paper/pencil tests) was employed that measures accuracy and speed of performance in major cognition domains, including attention/vigilance, planning, short-term and working memory, decision making, abstraction and mental flexibility. All the tests were formatted like games and puzzles, and were administered to the patient as part of the comprehensive neuropsychiatric assessment at baseline and the end of study. […]"}, "[3]": {"tested_on": "patient positive for anti-NR1 NMDAR antibodies", "experiment": "Digit Span Test (DST), forward and backward", "format": "in vivo, human", "settings": "post-6 weeks D-serine", "protocol": "as §1\n(§3) In addition, cognitive performance was assessed pre- and post DSR treatment. For this purpose, a 1.5-hour neurocognitive assessment battery (nine computerized and two paper/pencil tests) was employed that measures accuracy and speed of performance in major cognition domains, including attention/vigilance, planning, short-term and working memory, decision making, abstraction and mental flexibility. All the tests were formatted like games and puzzles, and were administered to the patient as part of the comprehensive neuropsychiatric assessment at baseline and the end of study. The neurocognitive battery included the 1) Test of Attentional Vigilance (TOAV, (Forbes, 1998, Journal of Clinical Psychology 54:461-476; Greenberg, 1993, Journal of Child Psychology and Psychiatry 34: 1019-30)); 2) Tower of London (TOL, (Shailice, 1982, Specific impairments of planning Philosophical Transactions of the Royal Society of London. Series B, Biological Sciences 298:199-209); 3-4) Digit Span Test (DST, forward and backward (Wechsler 1997, The Wechsler adult intelligence scale-III. San Antonio, Tex.: Psychological Corporation; Kaplan 1991, The WAIS-R as a neuropsychological instrument. San Antonio, Tex.: The Psychological Corporation; Lamar et al., 2007, Neuropsychologia 45:245-54; Lamar et al., 2008, Neuropsychologia 46:2597-601)); 5-6) Corsi Block Tapping Test (CBTT, forward and backward, (Corsi, 1972, Dissertation Abstracts International. 34:819B; Kessels et al., 2000, Applied Neuropsychology 7:252-58, Kessels et al., 2008, Assessment 15:426-34)); 7) Flanker Task (Erikson and Eriksen, 1974; Perception & Psychophysics 25: 249-63, Stins et. al., 2007, Advances in Cognitive Psychology 3:389-96); 8) Time Wall (Perez et al., 1987, Unified Tri-services cognitive performance assessment battery: review and methodology; DTIC Document ADA181697, http://www.dtic.mil/dtic/tr/fulltext/u2/a81697.pdf); and Wisconsin Card Sort Test (WCST, (Berg, 1948, J Gen Psychol39:15-22; Nelson, 1976, Cortex 12:313-24)). […]"}, "[4]": {"settings": "doses of ≤4 g/day; cited from earlier work"}, "[5]": {"tested_on": "patient positive for anti-NR1 NMDAR antibodies", "experiment": "Neurocognitive assessment battery (overall)", "format": "in vivo, human", "protocol": "as §1, §2"}, "[6]": {"tested_on": "patient positive for anti-NR1 NMDAR antibodies", "experiment": "Tower of London (ToL)", "format": "in vivo, human", "settings": "post-6 weeks D-serine", "protocol": "as §1, §3"}, "[7]": {"tested_on": "patient positive for anti-NR1 NMDAR antibodies", "experiment": "Wisconsin Card Sort Test (WCST)", "format": "in vivo, human", "settings": "post-6 weeks D-serine; pre-treatment subject unable to complete task", "protocol": "as §1, §3"}, "[8]": {"settings": "acute and chronic administration of 1-2 g DSR in humans; cited from earlier work"}, "[9]": {"settings": "pre-treatment subject unable to complete task"}}}
{"smiles": "N[C@H](CO)C(=O)O", "note": "[D-serine]", "values": [{"measurement": "Side effects", "setting": "[1]", "value": "no side effects were registered"}, {"measurement": "Tolerability of DSR treatment", "setting": "[1]", "value": "well tolerated"}, {"measurement": "TMT Part A", "setting": "[2]; pre-treatment 42", "value": 60.71, "unit": "s"}, {"measurement": "TMT Part B", "setting": "[2]; pre-treatment 102", "value": 86.35, "unit": "s"}, {"measurement": "DST Forward Span Length (3-9)", "setting": "[3]; pre-treatment 6", "value": 7}, {"measurement": "DST Forward Number Correct (0-14)", "setting": "[3]; pre-treatment 8", "value": 9}, {"measurement": "DST Backward Number Correct (0-14)", "setting": "[3]; [9]", "value": 3}, {"measurement": "DST Backward Span Length (3-9)", "setting": "[3]; [9]", "value": 4}, {"measurement": "Adverse events", "setting": "[4]", "value": "No significant adverse events"}, {"measurement": "Completion of DST, TMT and WCST tasks", "setting": "[5]; post-DSR treatment, not comprehended/performed at baseline", "value": "successfully completed"}, {"measurement": "Effect upon cognitive performance (test battery)", "setting": "[5]; post-DSR vs baseline, improvements in working memory, abstraction and mental flexibility", "value": "favorable effect"}, {"measurement": "ToL correctly solved trials, total (0-12)", "setting": "[6]; pre-treatment 6", "value": 4}, {"measurement": "ToL preplanning time, mean ± SD", "setting": "[6]; pre-treatment 15.48 ± 4.43", "value": "11.24 ± 4.73", "unit": "s"}, {"measurement": "ToL movement execution time, mean ± SD", "setting": "[6]; pre-treatment 22.57 ± 11.998", "value": "19.30 ± 15.42", "unit": "s"}, {"measurement": "ToL total time (0-720 seconds)", "setting": "[6]; pre-treatment 456.582", "value": 366.415, "unit": "s"}, {"measurement": "WCST Category Score", "setting": "[7]", "value": 5}, {"measurement": "WCST Total correct score %", "setting": "[7]", "value": 81.25, "unit": "%"}, {"measurement": "WCST Total error score %", "setting": "[7]", "value": 18.75, "unit": "%"}, {"measurement": "WCST Trials to complete 1st category", "setting": "[7]", "value": 12}, {"measurement": "Increase in DSR serum levels", "setting": "[8]", "value": "≥ 100", "unit": "times"}]}
